Measured values taken from PubChem BioAssay (NCI).
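The compound was tested at five concentrations on cells cultured in 96-well plates, with a 48-hour exposure period. Here, GI50 denotes the concentration required for 50% inhibition of growth. Definition used: TGI = concentration required for complete inhibition of growth.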

Legend:
Assay in all cases: NCI anticancer screen, dose series, 48 h
COLO 205 colon = tested on: COLO 205 colon
HOP-62 NSCLC = tested on: HOP-62 NSCLC
K-562 leukemia = tested on: K-562 leukemia
LOX IMVI melanoma = tested on: LOX IMVI melanoma
NCI-H23 lung = tested on: NCI-H23 lung
SK-OV-3 ovarian = tested on: SK-OV-3 ovarian
TK-10 renal = tested on: TK-10 renal
U251 CNS = tested on: U251 CNS
UACC-257 melanoma = tested on: UACC-257 melanoma
DU-145 prostate = tested on: DU-145 prostate

| Compound | TGI (COLO 205 colon) [µM] | TGI (HOP-62 NSCLC) [µM] | TGI (K-562 leukemia) [µM] | TGI (LOX IMVI melanoma) [µM] | TGI (NCI-H23 lung) [µM] | TGI (SK-OV-3 ovarian) [µM] | TGI (TK-10 renal) [µM] | TGI (U251 CNS) [µM] | TGI (UACC-257 melanoma) [µM] | GI50 (COLO 205 colon) [µM] | GI50 (HOP-62 NSCLC) [µM] | GI50 (K-562 leukemia) [µM] | GI50 (NCI-H23 lung) [µM] | GI50 (SK-OV-3 ovarian) [µM] | GI50 (TK-10 renal) [µM] | GI50 (U251 CNS) [µM] | GI50 (UACC-257 melanoma) [µM] | TGI (DU-145 prostate) [µM] | GI50 (DU-145 prostate) [µM] | GI50 (LOX IMVI melanoma) [µM] |
| --- | --- | --- | --- | --- | --- | --- | --- | --- | --- | --- | --- | --- | --- | --- | --- | --- | --- | --- | --- | --- |
| O=C(Nc1c(-c2nc3ccccc3[nH]2)sc(=S)n1-c1ccccc1)c1ccccc1 | > 100 | > 100 | > 100 | > 100 | > 100 | > 100 | > 100 | > 100 | > 100 |  |  |  |  |  |  |  |  |  |  |  |
| Cn1c(CCC#N)nc2ccc(Br)cc2c1=O | > 100 | > 100 | > 100 | > 100 | > 100 | > 100 | > 100 | > 100 | > 100 |  |  |  |  |  |  |  |  |  |  |  |
| COC(OC)c1cccc2c1C1(O)CCC3(CC21)OCCCCO3 (stereo not given) | > 100 | > 100 | > 100 | > 100 | > 100 | > 100 | > 100 | > 100 | > 100 |  |  |  |  |  |  |  |  |  |  |  |
| Cc1ccccc1C(=O)Oc1ccc(Oc2ccccc2)cc1 | > 100 | > 100 | > 100 |  | > 100 | > 100 | > 100 | > 100 | > 100 |  |  |  |  |  |  |  |  |  |  |  |
| Cc1ccc(C)c(NC(=O)c2cc(-c3ccc([N+](=O)[O-])cc3)nc(N)n2)c1 | > 100 | > 100 | > 100 | > 100 | > 100 | > 100 | > 100 | > 100 | > 100 |  |  |  |  |  |  |  |  |  |  |  |
| Cc1ccc(NC(=O)/C(CC(=O)c2c[n+](=O)c3ccccc3n2O)=N\NC(=O)C[n+]2ccccc2)cc1 | > 100 | > 100 | > 100 | > 100 |  | > 100 | > 100 | > 100 | > 100 |  |  |  |  |  |  |  |  |  |  |  |
| O=C(O)/C(=C/c1ccccc1[N+](=O)[O-])c1ccccc1 | > 100 | > 100 | > 100 | > 100 | > 100 | > 100 | > 100 | > 100 | > 100 |  |  |  |  |  |  |  |  |  |  |  |
| CC(c1ccc(Br)cc1)C(C(=O)O)C(=O)O (stereo not given) | > 100 | > 100 | > 100 | > 100 | > 100 | > 100 | > 100 | > 100 | > 100 |  |  |  |  |  |  |  |  |  |  |  |
| O=c1[nH]c(Br)nc2c(Br)c[nH]c12 | > 100 | > 100 | > 100 | > 100 | > 100 | > 100 | > 100 | > 100 | > 100 |  |  |  |  |  |  |  |  |  |  |  |
| CC(C)C(=O)N[C@@H](C)C(=O)N(Cc1ccc2ccccc2c1)N=O | > 100 | > 100 | > 100 | > 100 |  | > 100 | > 100 | > 100 | > 100 |  |  |  |  |  |  |  |  |  |  |  |
| CCCCCCCCCCCC(=O)OCC1OC(n2cc(F)c(=O)[nH]c2=O)C(N)C(OC(=O)CCCCCCCCCCC)C1O (stereo not given) | > 100 | > 100 | > 100 | > 100 | > 100 | > 100 | > 100 | > 100 | > 100 |  |  |  |  |  |  |  |  |  |  |  |
| CC(=O)OC12c3ccccc3C1CCCCCC21OCCCO1 (stereo not given) | > 100 | > 100 | > 100 | > 100 | > 100 | > 100 | > 100 | > 100 |  |  |  |  |  |  |  |  |  |  |  |  |
| C=CC1CC12C(=O)C1OC2(C)C2C(=O)c3c(ccc4c3ccc3ccccc34)C(=O)C12 (stereo not given) | > 100 | > 100 | > 100 |  | > 100 | > 100 | > 100 | 87.6 | > 100 | 51 | > 100 | 26.1 | 37.3 | > 100 | 52.9 | 26.7 | 89.4 |  |  |  |
| N=C(c1ccccc1)N(O)C1CCCCC1 | > 100 | > 100 |  | > 100 | > 100 |  | > 100 | > 100 | > 100 |  |  |  |  |  |  |  |  |  |  |  |
| N=C(N)SCCc1cn2ccccc2n1 | > 100 | > 100 | > 100 | > 100 | > 100 |  | > 100 | > 100 | > 100 |  |  |  |  |  |  |  |  |  |  |  |
| [Cu+2].[O-]c1ccc2ccccc2c1N=Nc1ccccc1.[O-]c1ccc2ccccc2c1N=Nc1ccccc1 | > 100 | > 100 | > 100 |  | > 100 | > 100 | > 100 | > 100 | > 100 |  |  |  |  |  |  |  |  | > 100 |  |  |
| COc1ccc2c(c1)c(C1(c3cn(C)c4ccc(OC)cc34)C(=O)Nc3ccc(F)cc31)cn2C | 6.36 | > 100 | > 100 | > 100 | > 100 | > 100 |  | > 100 | > 100 | 2.62 | 7.62 | 4.61 | 6.06 | 12.9 |  | 4.24 | 5.28 | > 100 | 11.5 | 4.45 |
| O=C(OCCOCBr)c1ccccc1 | > 100 | > 100 | > 100 | > 100 | > 100 | > 100 | > 100 | > 100 | > 100 |  |  |  |  |  |  |  |  |  |  |  |
| Nc1ccc(Nc2nc(F)nc(-c3c4ccccc4c4n3CCS4)n2)cc1 | 41.5 | 31.3 |  | 24.6 | 32.7 | 31.1 | 34.2 | 31 |  |  |  |  |  |  |  |  |  |  |  |  |
| COc1ccc(O)c(C(=O)c2ccc(C(=O)O[C@@H]3CCCNC[C@H]3NC(=O)c3ccncc3)cc2)c1F | > 25 | > 25 | > 25 | > 25 | > 25 | > 25 | > 25 | > 22.7 |  | 1.16 | 0.514 | 0.723 | 1.91 | 0.946 | 3.51 | 1.17 |  | > 25 | 1.47 | 1.19 |
| CC(=O)OC1CCn2nnc(COC(=O)NC(C)C)c21 (stereo not given) |  |  | > 100 |  | > 100 | > 100 | > 100 | > 100 | > 100 |  |  |  |  |  |  |  |  |  |  |  |
| COc1ccc2c(c1)CC[C@@H]1[C@@H]2CC[C@@]2(C)[C@H]1CC1(CCCCC1)[C@@H]2O | 26 | 34.3 |  | 20.9 | 35.9 | 41.3 | 31.8 | 24.4 | 47.2 | 7.35 | 18.3 |  | 18.6 | 21.6 | 12.2 | 10 | 23.6 | 29.3 | 15.2 | 7.28 |
